Measured values: patent US7888042B2, “Methods for identifying insulin mimetics” (Ohio University, priority 2005, dated 2011)

How the values were obtained:
Format in all cases: cell-based
[1] = tested on: 3T3-L1 adipocytes; assay: Glucose uptake assay in 3T3-L1 adipocytes
Method: Chemical synthesis yields both the α- and β-anomers of PGG. (B) Glucose transport stimulatory activity (13, 14) of PGG was assessed by incubating adipocytes in 6-well plates with insulin or PGG for 15 min followed by the addition of [^3H]-2-deoxy-D-glucose for 10 min before quantifying uptake (13, n=3, mean±SD, Two way-ANOVA, * P<0.05; ** P<0.01). α-PGG (●); β-PGG (□); insulin (∘). (C) Glucose transport induced by insulin in the presence of α-PGG. One […] of insulin was added to adipocytes in the presence of increasing amounts of α-PGG. After induction, radioactive glucose was added, and the glucose taken up by the cells was counted.
Reagents, compound synthesis, and glucose uptake assay. Bovine insulin was purchased from Sigma. PGG, in an approximate 1:1 mixture of α- and β-PGG, was synthesized from glucose in the non-radioactive form as described (22). The identity of the compounds was confirmed by MS and NMR. The compounds were dissolved in double distilled water (ddH2O), filter sterilized, and stored as a 10 mM aqueous stock solution at −20° C. The stock solutions were diluted to final concentrations with sterile ddH2O. Glucose uptake assays in 3T3-L1 adipocytes induced by PGG were performed as described (13).

[2] = tested on: 3T3-L1 adipocytes; assay: Glucose uptake assay with insulin signaling pathway inhibitors; conditions: inhibitor added along with α-PGG
Method: (§1) (A) Glucose transport was measured by determining [^3H]-2-deoxyglucose uptake stimulated by either insulin or α-PGG in 3T3-L1 cells in the presence or absence of HNMPA-(AM)3, an inhibitor of IR tyrosine kinase activity (24); wortmannin, an inhibitor of PI 3-kinase (25), or cytochalasin B, an inhibitor of GLUT4 (26), (n=4, mean±SD). (B) Cells were induced by 20 or 40 μM α-PGG or 100 nM insulin for 15 min. Cell lysates were separated by PAGE and analyzed for phosphorylation of IR (in CHO-IR cells) or Akt (in adipocytes) using antibodies specific to the target proteins. (C) Cells were treated with α-PGG and insulin in a fashion similar to (B) and assayed for their respective PI-3 kinase activity with a radioactive TLC method (27). (D) In similar experiments, intact cells were analyzed by confocal microscopy for translocation of GLUT4 using anti-GLUT4 antibodies.
Insulin signaling pathway study with inhibitors. To identify the signaling pathway and its potential protein target for PGG's glucose transport activity, three inhibitors to the insulin signaling pathway were selected. […] Inhibitors were individually added to the 3T3-L1 adipocytes along with either α-PGG or insulin at predetermined concentrations during glucose uptake assays, and the inhibition was measured by the glucose taken in by the cell samples treated with or without inhibitors.

[3] = tested on: GLUT4; assay: GLUT4 translocation, confocal microscopy; conditions: adipocytes, 37° C., 15 min
Method: as §1
Protein phosphorylation/activation and GLUT4 translocation. To investigate signal transduction induced by α-PGG, proteins from 3T3-L1 adipocytes or CHO-IR cells (23), which were treated with α-PGG or insulin for 15 min, were isolated, separated by PAGE, blotted on nylon membranes, and analyzed by Western blotting with antibodies against either IR or Akt. […]

O=C(OC[C@H]1OC(OC(=O)c2cc(O)c(O)c(O)c2)[C@H](OC(=O)c2cc(O)c(O)c(O)c2)[C@@H](OC(=O)c2cc(O)c(O)c(O)c2)[C@@H]1OC(=O)c1cc(O)c(O)c(O)c1)c1cc(O)c(O)c(O)c1 (stereo partly drawn) [PGG, 1,2,3,4,6-penta-O-galloyl-D-glucose]
mode of action at IR for glucose transport activity [1]: partial agonist

C=C1[C@@H](C)[C@H]2[C@H](Cc3ccccc3)NC(=O)[C@]23OC(=O)/C=C/[C@H](O)CCC[C@@H](C)C/C=C/[C@H]3[C@@H]1O [cytochalasin B]
glucose transport activity induced by α-PGG in presence of inhibitor [2]: completely abolished

O=C(OC[C@H]1O[C@@H](OC(=O)c2cc(O)c(O)c(O)c2)[C@H](OC(=O)c2cc(O)c(O)c(O)c2)[C@@H](OC(=O)c2cc(O)c(O)c(O)c2)[C@@H]1OC(=O)c1cc(O)c(O)c(O)c1)c1cc(O)c(O)c(O)c1 [β-PGG]
induction of glucose transport ([1]; 3T3-L1 adipocytes, [3H]-2-deoxy-D-glucose uptake, 15 min incubation): induced glucose transport in adipocytes in a dose-dependent manner

insulin: Bovine insulin purchased from Sigma
GLUT4 translocation [3]: translocated to the plasma membrane
